{"source": "patent US20230159532A1", "about": "“PARATHYROID HORMONE (PTH) RECEPTOR ANTAGONISTS AND USES THEREOF” (Crinetics Pharmaceuticals, Inc., priority 2021, published 2023)", "note": "pKi: −log10 of the molar value.", "data": [{"target": "T1, human PTHR1 receptor (Homo sapiens, UniProt Q03431)", "T1 construct": "purchased Eurofins HTS030M", "T1 sequence (Q03431 27-593)": "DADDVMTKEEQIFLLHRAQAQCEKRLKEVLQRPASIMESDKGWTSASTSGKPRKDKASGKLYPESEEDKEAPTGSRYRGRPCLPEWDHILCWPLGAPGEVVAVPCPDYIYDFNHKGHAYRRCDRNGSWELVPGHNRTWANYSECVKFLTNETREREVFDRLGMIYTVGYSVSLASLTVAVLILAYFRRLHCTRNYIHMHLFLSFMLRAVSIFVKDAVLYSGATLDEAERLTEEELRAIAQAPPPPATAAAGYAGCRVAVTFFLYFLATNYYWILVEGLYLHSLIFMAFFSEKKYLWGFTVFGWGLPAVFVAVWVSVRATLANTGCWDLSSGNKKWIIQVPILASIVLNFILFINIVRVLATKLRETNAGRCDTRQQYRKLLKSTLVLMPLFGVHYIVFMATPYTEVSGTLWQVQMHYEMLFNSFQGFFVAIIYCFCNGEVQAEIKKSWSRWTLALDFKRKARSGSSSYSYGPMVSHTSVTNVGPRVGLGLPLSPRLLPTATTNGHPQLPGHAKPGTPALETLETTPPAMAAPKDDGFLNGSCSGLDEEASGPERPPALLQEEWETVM", "assay": "Competitive antagonist binding assay for hPTH-R1 (radioactive competition binding, SPA beads)", "settings": "human PTHR1 membranes, [125I]-[Nle8,18,Tyr34]-PTH(1-34) 0.2 nM, 90 minutes at room temperature; read-out: hPTHR1 Ki", "in_short": "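Displacement of 0.2 nM radioiodinated [Nle8,18,Tyr34]-PTH(1-34) from membrane-bound human PTHR1 measured by scintillation proximity after 90 min at room temperature. Compounds typically 0-10,000 nM final, pH 7.4 HEPES/Mg/Ca buffer with BSA and detergent. Ki calculated from competition data.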", "values": [{"compound": "CCN1C(=O)N(c2c(F)cc(NCCNCCO)cc2F)c2cc(Cl)ccc2-c2cccnc21", "note": "[1-7, 13-chloro-10-[2,6-difluoro-4-({2-[(2-hydroxyethyl)amino]ethyl}amino)phenyl]-8-ethyl-6,8,10-triazatricyclo[9.4.0.0^2,7]pentadeca-1(11),2(7),3,5,12,14-hexaen-9-one]", "pKi": "> 7.00"}, {"compound": "CCN1C(=O)N(c2c(F)cc(NCCNC3CCOC3)cc2F)c2cc(Cl)ccc2-c2cc(Cl)cnc21", "note": "(stereo not shown) [1-13, 4,13-dichloro-10-[2,6-difluoro-4-({2-[(oxolan-3-yl)amino]ethyl}amino)phenyl]-8-ethyl-6,8,10-triazatricyclo[9.4.0.0^2,7]pentadeca-1(11),2(7),3,5,12,14-hexaen-9-one]", "pKi": "> 7.00"}, {"compound": "CCN1C(=O)N(c2c(F)cc(NCCNC3CCOCC3)cc2F)c2cc(Cl)ccc2-c2cc(Cl)cnc21", "note": "[1-12, 4,13-dichloro-10-[2,6-difluoro-4-({2-[(oxan-4-yl)amino]ethyl}amino)phenyl]-8-ethyl-6,8,10-triazatricyclo[9.4.0.0^2,7]pentadeca-1(11),2(7),3,5,12,14-hexaen-9-one]", "pKi": "> 7.00"}, {"compound": "CCN1C(=O)N(c2c(F)cc(NCCNCCNC(C)=O)cc2F)c2cc(C#N)ccc2-c2cc(Cl)cnc21", "note": "[1-168, N-[2-({2-[(4-{4-chloro-13-cyano-8-ethyl-9-oxo-6,8,10-triazatricyclo[9.4.0.0^2,7]pentadeca-1(15),2(7),3,5,11,13-hexaen-10-yl}-3,5-difluorophenyl)amino]ethyl}amino)ethyl]acetamide]", "pKi": "> 7.00"}, {"compound": "CCN1C(=O)N(c2c(F)cc(NCCNCCO)cc2F)c2cc(C#N)cc(C)c2-c2cc(F)cnc21", "note": "[1-63, 10-[2,6-difluoro-4-({2-[(2-hydroxyethyl)amino]ethyl}amino)phenyl]-8-ethyl-4-fluoro-15-methyl-9-oxo-6,8,10-triazatricyclo[9.4.0.0^2,7]pentadeca-1(11),2(7),3,5,12,14-hexaene-13-carbonitrile]", "pKi": "> 7.00"}, {"compound": "CCN1C(=O)N(c2c(F)cc(NCCNCC3CCC(=O)N3)cc2F)c2cc(C#N)ccc2-c2cc(Cl)cnc21", "note": "(stereo not shown) [1-176, 4-chloro-10-{2,6-difluoro-4-[(2-{[(5-oxopyrrolidin-2-yl)methyl]amino}ethyl)amino]phenyl}-8-ethyl-9-oxo-6,8,10-triazatricyclo[9.4.0.0^2,7]pentadeca-1(15),2(7),3,5,11,13-hexaene-13-carbonitrile]", "pKi": "> 7.00"}, {"compound": "CCN1C(=O)N(c2c(F)cc(NCCN)cc2F)c2cc(Cl)ccc2-c2cc(F)cnc21", "note": "[1-15, 10-{4-[(2-aminoethyl)amino]-2,6-difluorophenyl}-13-chloro-8-ethyl-4-fluoro-6,8,10-triazatricyclo[9.4.0.0^2,7]pentadeca-1(11),2(7),3,5,12,14-hexaen-9-one]", "pKi": "> 7.00"}]}]}
